Data from ChEMBL document CHEMBL1156052, “Discovery of 1-[4-(3-chlorophenylamino)-1-methyl-1H-pyrrolo[3,2-c]pyridin-7-yl]-1-morpholin-4-ylmethanone (GSK554418A), a brain penetrant 5-azaindole CB2 agonist for the treatment of chronic pain” (J Med Chem, 2009).
Calls of active or inactive are those of the source. No cut-off for these calls is given here.

How the values were obtained:
Cannabinoid receptor 1 [1] = molecular target: T1, Cannabinoid receptor 1 (Homo sapiens, UniProt P21554); experiment: Agonist activity at human recombinant cannabinoid CB1 receptor expressed in MMY23 Saccharomyces cerevisiae assessed as degradation of FDGlu to fluorescein after 24 hrs by spectrofluorimetry; assay type: functional
Cannabinoid receptor 2 [2] = molecular target: T2, Cannabinoid receptor 2 (Homo sapiens, UniProt P34972); experiment: Agonist activity at human recombinant cannabinoid CB2 receptor expressed in MMY23 Saccharomyces cerevisiae assessed as degradation of FDGlu to fluorescein after 24 hrs by spectrofluorimetry; assay type: functional
Cannabinoid receptor 2 [3] = molecular target: T2, Cannabinoid receptor 2; experiment: Agonist activity at human recombinant cannabinoid CB2 receptor expressed in MMY23 Saccharomyces cerevisiae assessed as degradation of FDGlu to fluorescein after 24 hrs by spectrofluorimetry relative to HU210; assay type: functional
Cannabinoid receptor 1 [4] = molecular target: T1, Cannabinoid receptor 1; experiment: Agonist activity at human recombinant cannabinoid CB1 receptor expressed in MMY23 Saccharomyces cerevisiae assessed as degradation of FDGlu to fluorescein after 24 hrs by spectrofluorimetry relative to HU210; assay type: functional
Cannabinoid receptor 1 [5] = molecular target: T1, Cannabinoid receptor 1; experiment: Agonist activity at human recombinant cannabinoid CB1 receptor expressed in MMY23 Saccharomyces cerevisiae assessed as degradation of FDGlu to fluorescein at 30 uM after 24 hrs by spectrofluorimetry; assay type: functional
Homo sapiens = organism: Homo sapiens; experiment: Selectivity ratio of EC50 for human recombinant cannabinoid CB1 receptor to EC50 for human recombinant cannabinoid CB2 receptor

T2 sequence (P34972 whole entry): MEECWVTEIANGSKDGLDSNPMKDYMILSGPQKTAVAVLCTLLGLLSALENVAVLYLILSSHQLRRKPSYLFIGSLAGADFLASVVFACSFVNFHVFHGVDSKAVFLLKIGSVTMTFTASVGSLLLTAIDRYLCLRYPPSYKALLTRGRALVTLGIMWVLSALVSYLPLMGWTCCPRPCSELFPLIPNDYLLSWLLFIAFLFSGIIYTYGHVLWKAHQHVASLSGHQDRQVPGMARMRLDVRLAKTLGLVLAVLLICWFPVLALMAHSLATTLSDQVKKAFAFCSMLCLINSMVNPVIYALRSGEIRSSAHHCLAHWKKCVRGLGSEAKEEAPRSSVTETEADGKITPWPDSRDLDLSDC
T1 sequence (P21554 whole entry): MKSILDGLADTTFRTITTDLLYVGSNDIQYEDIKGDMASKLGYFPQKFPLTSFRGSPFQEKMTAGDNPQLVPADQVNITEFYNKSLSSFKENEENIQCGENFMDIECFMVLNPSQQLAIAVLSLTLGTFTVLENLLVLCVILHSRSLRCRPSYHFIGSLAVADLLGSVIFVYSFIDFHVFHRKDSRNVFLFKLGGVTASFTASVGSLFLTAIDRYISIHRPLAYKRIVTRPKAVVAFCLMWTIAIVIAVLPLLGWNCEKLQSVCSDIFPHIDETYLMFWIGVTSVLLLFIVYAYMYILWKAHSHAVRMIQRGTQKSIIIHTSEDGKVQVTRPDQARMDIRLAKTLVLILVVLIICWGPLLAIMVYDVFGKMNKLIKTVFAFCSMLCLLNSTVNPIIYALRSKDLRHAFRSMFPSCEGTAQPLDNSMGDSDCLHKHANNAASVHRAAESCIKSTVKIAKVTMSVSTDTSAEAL

SMILES: Cc1c[nH]c2c(Nc3cccc(Cl)c3)ncc(C(=O)NCc3ccc(F)cc3)c12
- EC50 (Cannabinoid receptor 1 [1]): > 30000 nM
- EC50 (Cannabinoid receptor 2 [2]): 145 nM
- Efficacy (Cannabinoid receptor 2 [3]): 58%

SMILES: Cc1c[nH]c2c(Nc3cccc(Br)c3)ncc(C(=O)N3CCOCC3)c12
- EC50 (Cannabinoid receptor 1 [1]): 6300 nM
- Efficacy (Cannabinoid receptor 1 [4]): 43%
- EC50 (Cannabinoid receptor 2 [2]): 10 nM
- Efficacy (Cannabinoid receptor 2 [3]): 78%

SMILES: Cc1c[nH]c2c(Nc3cccc(Cl)c3)ncc(C(=O)NC3CCOCC3)c12
- EC50 (Cannabinoid receptor 1 [1]): > 30000 nM
- EC50 (Cannabinoid receptor 2 [2]): 1700 nM
- Efficacy (Cannabinoid receptor 2 [3]): 79%

SMILES: Cc1c[nH]c2c(NC3CCOCC3)ncc(C(=O)N3CCOCC3)c12
- EC50 (Cannabinoid receptor 1 [1]): > 30000 nM
- EC50 (Cannabinoid receptor 2 [2]): 3300 nM
- Efficacy (Cannabinoid receptor 2 [3]): 84%

SMILES: Cc1c[nH]c2c(Nc3cccc(Cl)c3)ncc(C(=O)N3CCC3)c12
- EC50 (Cannabinoid receptor 1 [1]): > 30000 nM
- EC50 (Cannabinoid receptor 2 [2]): 504 nM
- Efficacy (Cannabinoid receptor 2 [3]): 66%

SMILES: CCCCCCC(C)(C)c1cc(O)c2c(c1)OC(C)(C)[C@@H]1CC=C(CO)C[C@@H]21
- EC50 (Cannabinoid receptor 1 [1]): 40 nM

SMILES: CCC(CC)Nc1ncc(C(=O)N2CCOCC2)c2c(C)c[nH]c12
- EC50 (Cannabinoid receptor 1 [1]): > 30000 nM
- EC50 (Cannabinoid receptor 2 [2]): 4670 nM
- Efficacy (Cannabinoid receptor 2 [3]): 59%

SMILES: Cc1c[nH]c2c(Nc3cccc(C(F)(F)F)c3)ncc(C(=O)N3CCOCC3)c12
- EC50 (Cannabinoid receptor 1 [1]): > 30000 nM
- EC50 (Cannabinoid receptor 2 [2]): 15 nM
- Efficacy (Cannabinoid receptor 2 [3]): 86%
- Activity (Cannabinoid receptor 1 [5]): inactive
- Ratio EC50 (Homo sapiens): > 100

SMILES: Cc1c[nH]c2c(Nc3cccc(Cl)c3)ncc(C(=O)N3CCCC3)c12
- EC50 (Cannabinoid receptor 1 [1]): > 30000 nM
- EC50 (Cannabinoid receptor 2 [2]): 153 nM
- Efficacy (Cannabinoid receptor 2 [3]): 68%

SMILES: Cc1c[nH]c2c(Nc3cccc(Cl)c3)ncc(C(=O)N3CCCCCC3)c12
- EC50 (Cannabinoid receptor 1 [1]): > 30000 nM
- EC50 (Cannabinoid receptor 2 [2]): 107 nM
- Efficacy (Cannabinoid receptor 2 [3]): 76%

SMILES: COc1cccc(Nc2ncc(C(=O)N3CCOCC3)c3c(C)c[nH]c23)c1
- EC50 (Cannabinoid receptor 1 [1]): 25100 nM
- Efficacy (Cannabinoid receptor 1 [4]): 69%
- EC50 (Cannabinoid receptor 2 [2]): 48 nM
- Efficacy (Cannabinoid receptor 2 [3]): 83%
- Activity (Cannabinoid receptor 1 [5]): inactive
